Experimental data taken from the supplement of paper PMC10290057.
Structures can show the parent of a compound that is named as a salt.

What was measured:
[1] = test system: HCT116; assay: AC50 cell viability (CellTiter-Glo); higher = less potent; conditions: 48 h
[2] = test system: HCT116; assay: efficacy (fitted maximal change in viability relative to DMSO control); higher = less cytotoxic (negative = loss of viability); conditions: 48 h
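For AC50 cell viability (CellTiter-Glo) in this document: HCT116 colorectal carcinoma cells screened at five concentrations per compound, luminescent viability scaled between DMSO wells and empty wells on each plate, curves fitted per compound.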
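For efficacy (fitted maximal change in viability relative to DMSO control) in this document: Luminescence-based viability readout, five doses per compound, normalized against on-plate DMSO and empty-well controls, followed by dose-response curve fitting for every drug.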

Compound	AC50 cell viability [1] [µM]	efficacy [2] [%]
O=C(Nc1nc2cccc(-c3ccc(CN4CC[S+](=O)([O-])CC4)cc3)n2n1)C1CC1 [Filgotinib]	7.42	-70.1
C[N]1C=C(C=N1)C2=CN=C3\C=C/C4=CC=C(C[S+]([O-])(=O)NCC5=NC=CC=C5)C=C4C(=O)C3=C2 [MK-8033]	16.6	-65.9
CC(NC1=CC=CC=C1)C\2=C\C(=C/N3C(=O)\C=C(/N=C23)N4CCOCC4)C (centres undefined) [TGX-221]	18.6	-44.2
COc1cc(C(=O)NC(=N)Nc2ccc(C)c(NC(=O)c3ccc(-c4ccccc4)cc3)c2)cc(OC)c1OC [MRT-83]	7.42	-47.2
COc1ccc(F)c(F)c1C(=O)c1cnc(NC2CCN([S+](C)(=O)[O-])CC2)nc1N [R-547]	0.417	-67.8
c1ccc(-c2oc3ncnc(NC[C@@H]4CCCO4)c3c2-c2ccccc2)cc1 [AIM-100]	9.34	-69.3
CC(C)(C)c1cc(NC(=O)Nc2ccc(-c3cn4c(n3)sc3cc(OCCN5CCOCC5)ccc34)cc2)no1 [Quizartinib]	13.2	-74.1
F\C1=C\NC(=O)NC1=O [Fluorouracil]	10.5	-64.4
CN(C)[S+](=O)([O-])c1ccc2c(c1)C(=Cc1cc3c([nH]1)CCCC3)C(=O)N2 [SU-6656]	0.118	-34.2
Cc1[nH]c(/C=C2\C(=O)Nc3ccc([S+](=O)([O-])N(C)c4cccc(Cl)c4)cc32)c(C)c1C(=O)N1CCN(C)CC1 [SU-MI-2]	14.8	-113
Cc1ccc([N+](=O)[O-])cc1[S+](=O)([O-])N(C)/N=C/c1cnc2ccc(Br)cn12 [PIK-75]	0.0525	-60.8
O=C(c1ccc(Nc2nc(C3CC3)cn3c(-c4cn[nH]c4)cnc23)c(F)c1)N1CCOCC1 [P21d hydrochloride]	14.8	-86.2
CCNC(=O)c1noc(-c2cc(C(C)C)c(O)cc2O)c1-c1ccc(CN2CCOCC2)cc1 [NVP-AUY922]	0.105	-63.2
Cc1ccc2nc(NCCN)c3ncc(C)n3c2c1	2.35	-78.2
O=C(N[C@@H](c1ccccc1)[C@@H]1CCCCN1)c1cccc(C(F)(F)F)c1Cl	20.9	-108
CCc1nc(N)nc(N)c1-c1ccc(Cl)cc1 [Pyrimethamine]	3.32	-88.5
CCc1cncnc1N1CCN(Cc2nc3cc(C(F)(F)F)ccc3[nH]2)CC1	14.8	-42.6
CC(C)c1cc(CNc2nc(Nc3cc(C4CC4)[nH]n3)cc(N3CCN(C)CC3)n2)on1 [XL-228]	0.295	-64
COc1cc2ncnc(Oc3cccc(NC(=O)Nc4cc(C(C)(C)C(F)(F)F)on4)c3)c2cc1OC	3.72	-66.5

Compound	AC50 cell viability [1] [µM]	efficacy [2] [%]
CN[C@@H]1C[C@H]2O[C@@](C)([C@@H]1OC)n1c3ccccc3c3c4c(c5c6ccccc6n2c5c31)C(=O)NC4 [Staurosporine]	0.0468	-89.4
CCC[C@H](N[C@H]1CCc2cc(F)cc(F)c2C1)C(=O)Nc1cn(C(C)(C)CNCC(C)(C)C)cn1 [Nirogacestat]	20.9	-90.3
Cc1cc(C(=O)Nc2cc(Nc3ccc4c(/C=C/c5ccccn5)[nH]nc4c3)ccc2F)n(C)n1	10.5	-99.1
CC[C@H]1/C=C\C=C/C[C@@H](C)[C@H](O)[C@@](C)(O)C(=O)[C@@H](C)[C@H](O)[C@@H](C)C(=O)[C@@H](C)[C@H](O)[C@@H](C)/C=C/C(=O)O[C@@H]2[C@H](C)[C@H](CC1)O[C@]1(CC[C@H](C)[C@H](C[C@@H](C)O)O1)[C@H]2C [Oligomycin A]	16.6	-112
CC(C)Oc1ccc(C(=O)N[C@H](CNC(=O)CN(C)C)Cc2ccc(-c3cn4cccc([C@H](C)O)c4n3)cc2)cc1Cl	4.17	-127
N#Cc1ccnc(Nc2cc(C3CCN(C4COC4)CC3)cc(N3CCC(F)(F)C3)n2)c1 [GNE-3511]	0.833	-77.1
CCC[C@H](NC(=O)/C(C#N)=C/c1cccc(Br)n1)c1ccccc1 [Degrasyn]	26.3	-104
CNC(=O)c1ccccc1Nc1nc(Nc2ccc3c(c2OC)CCC[C@@H](N2CCN(CCO)CC2)C3)ncc1Cl	4.17	-110
C=C1C(=O)O[C@@H]2[C@H]3O[C@]3(C)CC/C=C(\C)CC[C@@H]12 [Parthenolide]	13.2	-97.4
CC(C)N(CCCNC(=O)Nc1ccc(C(C)(C)C)cc1)C[C@H]1O[C@@H](n2cc(Br)c3c(N)ncnc32)[C@H](O)[C@@H]1O [SGC-0946]	20.9	-95.9
N[S+]([O-])(=O)C1=CC=C(NC/2=C/C(=O)C3=CC=CC=C3C2=O)C=C1	10.5	-81.9
COc1ncc(-c2ccc3nccc(-c4ccnnc4)c3c2)cc1N[S+](=O)([O-])c1ccc(F)cc1F	0.105	-74.6
CC(C)(C)NC(=O)c1cncn1C1CCN(c2ccc(-c3nnc(C(F)(F)F)o3)cn2)CC1 [WNK-463]	3.72	-49.1
C[N]1N=CC=C1NC2=NC=CC(=N2)C\3=C\C(=O)N(\C=C3)[C@H](CO)C4=CC(=C(Cl)C=C4)F [Ravoxertinib]	14.8	-116
C[C@H]1CNC(=O)c2cnn3ccc(nc23)N[C@H](C)c2cc(F)ccc2O1 [TPX-0005]	2.35	-87.5
C=C1[C@H](OC(=O)/C=C(\C)CC)C[C@@H](C(C)C)[C@@H]2[C@H]([C@@H](C)OC(C)=O)C(=O)C[C@@H]12 [Tussilagone]	20.9	-67.9
Cc1cccc(Nc2nc(-c3ccncc3)cs2)c1	18.6	-69.9
COCCOc1nc(-c2ccc(Cl)c(Cl)c2)n(-c2ccc(NC(=O)CCl)cc2)n1 [MI-2]	18.6	-63.7
C[C@@H]1O[C@@H](O[C@@H]2C=C3CC[C@@H]4[C@H](CC[C@]5(C)[C@@H](c6ccc(=O)oc6)CC[C@]45O)[C@@]3(C)CC2)[C@H](O)[C@H](O)[C@H]1O [Proscillaridin]	0.00833	-82.5

Compound	AC50 cell viability [1] [µM]	efficacy [2] [%]
CC(C)C[C@@H](C=O)NC(=O)[C@H](CC(C)C)NC(=O)[C@H](CC(C)C)NC(=O)OCc1ccccc1 [MG-132]	0.468	-89.4
COc1cc2c(Nc3ccc(NC(=O)c4ccccc4)cc3)ncnc2cc1OCCCN1CCOCC1	18.6	-120
CC(C)C1NC(=O)C(NC(=O)C2=C3\N=C\4/C(=C(C)\C(=O)\C(=C4C(=O)NC5C(C)OC(=O)C(C(C)C)N(C)C(=O)CN(C)C(=O)C6CCCN6C(=O)C(NC5=O)C(C)C)N)OC3=C(C)C=C2)C(C)OC(=O)C(C(C)C)N(C)C(=O)CN(C)C(=O)C7CCCN7C1=O (centres undefined) [Actinomycin D]	0.00144	-73.8
CCN1CCN(Cc2ccc(NC(=O)c3ccc(C)c(NC(=O)c4cncc(-c5cccs5)c4)c3)cc2C(F)(F)F)CC1 [ALW-II-41-27]	1.86	-111
Nc1cc(C(F)(F)F)c(-c2nc(N3CCOCC3)nc(N3CCOCC3)n2)cn1 [Bimiralisib]	1.86	-60.2
NC\1=N\C(=O)N(\C=C1F)[C@H]2C[C@H](O)[C@@H](CO)O2	0.105	-64
O=C(Nc1cnccc1Cl)N1CCN(Cc2ccc3c(c2)OC(F)(F)O3)CC1	14.8	-56.5
COc1cc(-c2nn(C3CCC(N4CCN(C(C)=O)CC4)CC3)c3ncnc(N)c23)ccc1NC(=O)c1cc2ccccc2n1C (centres undefined)	10.5	-90.5
CCNC(=O)C[C@H]1/N=C(/C2=CC=C(Cl)C=C2)C3=CC(=CC=C3[N]4C(=NN=C14)C)OC	14.8	-37.7
Clc1ccc(C(Cn2ccnc2)OCc2ccsc2Cl)c(Cl)c1 (centres undefined) [Tioconazole]	18.6	-84.3
OC[C@H]1O[C@H](C[C@@H]1O)N2\C=C(\I)C(=O)NC2=O [Idoxuridine]	16.6	-38.3
CO[C@@H]1C(N(C)C(=O)c2ccccc2)C[C@H]2O[C@]1(C)n1c3ccccc3c3c4c(c5c6ccccc6n2c5c31)C(=O)NC4=O (some centres undefined) [Stauprimide]	1.66	-50
CCCN(CCC)C(=O)C\1=C\C2=CC=C(C=C2\N=C(N)/C1)C3=CC=C(C=C3)C(=O)N4CCCC4 [Motolimod]	18.6	-45.8
Cc1c[nH]c2nc(Nc3ccc(N4CCN(C)CC4)c(F)c3)nc(-c3cccc(CC#N)c3)c12 [SGI-7079]	0.525	-83.9
COc1cc([C@@H]2c3cc4c(cc3[C@H](O)[C@H]3COC(=O)[C@@H]23)OCO4)cc(OC)c1OC [Picropodophyllin]	0.417	-56.6
COC(=O)Nc1ccc(-c2nc(N3CCOCC3)c3cnn(C4CCN(Cc5cccnc5)CC4)c3n2)cc1 [WYE-687]	13.2	-135
CC(C)C[C@H](NC(=O)CNC(=O)c1cc(Cl)ccc1Cl)B(O)O [Ixazomib]	0.0833	-89.3
CC(/C=C/C(=O)NO)=C\[C@@H](C)C(=O)c1ccc(N(C)C)cc1 [Trichostatin A]	0.332	-82.3
CCOC(=N)c1nc2ccc3ncnc(Nc4cc(F)c(F)cc4Cl)c3c2s1 [FX-9847]	4.68	-41.6
